Data from PMC3209665 (Chemical biology & drug design, 2009).

Experiment: Solubility in ITC buffer
Assay type: physicochemical
Conditions: 10 mM sodium acetate, pH 5.0, 2% DMSO

Substance: KNI-10006
- solubility: limited solubility
